Source: PMC11955804, “Histidine-rich enantiomeric peptide coacervates enhance antigen sequestration and presentation to T cells” (Chemical Science, 2025)

Experiments:
hiPSC-CMs = assay: Confocal microscopy of cellular uptake in hiPSC-CMs; type: cell-based, human; details: for interaction with the cell membrane of hiPSC-CMs: confocal microscopy; for cellular uptake / localization in hiPSC-CMs: eGFP loaded coacervates (100 nM eGFP), 30 min, 37 °C, confocal
Procedure: Stem cell-derived cardiomyocytes and confocal microscopy
Wild type hiPSCs (WT iPSC 11) were received from the Genome Engineering and Stem Cell Center at Washington University School of Medicine. hiPSCs were cultured in mTeSR Plus […]
medium ([…] Technologies, USA) on 6-well plates coated with Matrigel (1:100, Corning) and grown at 37 °C with 5% CO2. Cells were grown to 80–90% confluency and then passaged as clusters using Versene (Thermo Scientific, USA) into 6-well plates for hiPSC maintenance and […]
into 24-well plates for hiPSC differentiation. Once hiPSCs reached 90% confluence, they were differentiated into cardiomyocytes using small-molecule manipulation of Wnt signaling 10. Non-cardiomyocytes were removed via lactate purification on days 20 and 22 before replating singularized hiPSC cardiomyocytes (hiPSC-CMs) at 40,000 cells per 35-mm glass-bottom dish. hiPSC-CMs were treated with enantiomeric leucine or valine coacervates loaded with eGFP protein (Novus Biologicals, Catalog number: NBP2-34923; 50 μL, final concentration of 100 nM eGFP) for 30 min at 37°C. Samples were fixed with 2% paraformaldehyde (PFA) and three PBS washes (10 min at RT). The cell membrane was stained with wheat germ agglutinin (WGA; Fisher Scientific, Catalog number: W32466; 0.25 μL/mL) conjugated to Alexa Fluor 647 (10 min at RT), followed by three PBS washes (5 minutes at RT). Confocal micrographs of singular hiPSC-CMs were acquired using a Leica Sp8 Lightning single-photon confocal microscope […]
numerical aperture oil immersion objective, two HyD GaAsP detectors, and two high-sensitivity photomultiplier tube detectors. Images were collected as z-stacks (presented as top or bottom view, and single plane) and by Nyquist sampling (or greater) as previously described 11.
All animal experiments were conducted under approved protocols by the Institutional Animal Care and Use Committee (IACUC) at Washington University in St Louis. Femoral and tibial bone marrow from C57BL/6 mice were collected and RBCs lysed using ACK buffer. The cells were plated at 5×10^6 cells per petri dish (150 mm) and differentiated for 7–9 days in complete RPMI-1640 medium (containing 10% heat-inactivated FBS), 55 µM β-mercaptoethanol, 1 mM sodium pyruvate, 10 mM HEPES, 1× MEM non-essential amino acids, 20 ng/mL GM-CSF, 10

[1] = Droplet coalescence assay; type: physicochemical; details: video still images over 15 min; mixing of fluorophore-loaded droplets
Procedure: wavelength range of 215–260 nm with a bandwidth of 1.00 nm, 0.5 nm step. Solvent background was subtracted from each spectrum and data converted to mean residue ellipticity (MRE).
Droplet coalescence assays
Experiments were conducted to visualize the dynamic process of droplet fusion by capturing a series of still images over 15 min, with each acquisition every 500 ms. Contrast and brightness were adjusted to ensure optimal visibility of the coacervates, and noise cancellation was applied to reduce background interference. Frame correction aligned the images to account for shifts that occurred during capture. Additional enhancements included sharpening to visualize finer details and color correction to ensure that the visual representation closely matched the actual observation. The images were meticulously stacked to create a continuous video sequence that provided a dynamic view of the peptides' behavior, showing the evolution of coacervates from their initial formation, through stabilization and fusion. Significant fusion events were identified and marked with arrows. Advanced tracking algorithms were employed to follow movement and changes within the coacervates, and event segmentation was used to isolate specific interactions […]
Stem cell-derived cardiomyocytes and confocal microscopy […]

DCs = assay: DQ-OVA delivery to lysosomes (fluorescence microscopy); type: cell-based, mouse; details: DQ-OVA loaded coacervates, 2.5 μg/mL DQ-OVA, fluorescence microscopy
Procedure: page 13: Flow cytometry The transfected A549 cells were washed with FACS wash buffer (FWB; 1× PBS with 10% […] Cells were washed again with FWB and then resuspended in 100 µl of PBS with eBioscience™ Fixable Viability Dye eFluor™ 506 antibody. The staining was quenched with FWB following a 20 min incubation. The cells were centrifuged, washed 2× times with FWB, and resuspended in 100 µl FWB with CD55 (DAF) Antibody (anti-human; miltenyibiotec Cat#130-126-382). After 20 min, staining was quenched, cells washed twice and resuspended in 200 µl FWB for acquisition. Single-stained cells stained with eFluor™ 506, CD55 (DAF) Antibody, were used as compensation controls. Samples were acquired using an Agilent NovoCyte 3000 flow cytometer. Data were analyzed with FlowJo version 10. […] was quantified as the percentage CD55+ cells, considering untreated cells as the negative control and Lipofectamine treated ones as the positive control. Antigen delivery to lysosomes and inhibitor effects DC 2.4 cells were cultured in RPMI-1640 (Catalog number: 11875093) medium supplemented with 10% FBS, 100 U/mL penicillin, 100 μg/mL streptomycin, and 1 mM sodium pyruvate. Cells were plated in 8-well chamber slides (5000 cells in 200 μL of media) and incubated for 24 h prior to addition of DQ-OVA loaded coacervates for 2 h, 6 h, or 24 h (final DQ-OVA concentration was 2.5 μg/mL). Cells treated with PBS or soluble OVA served as controls. Cells were then washed and fixed using 4% Paraformaldehyde (PFA) for 15 min at RT and permeabilized with 0.1% Triton X-100 for 5 min prior to nuclear staining with Hoechst stain (Catalog number: 62249, Thermo Fischer Scientific; 10 μg/mL). Cells were imaged (60×) on Lionheart FX automated microscope (BioTek Instruments, Inc.) with controlled exposure S13 page 14: parameters across two channels: eGFP and DAPI.

[2] = tested on: BMDCs overlaid with DOBW cells; assay: In vitro antigen presentation assay, MHC class II (BMDCs + DOBW hybridoma, IL-2 ELISA); details: DOBW overlay; for IL-2 levels at 4 °C compared to 37 °C controls: OVA-loaded coacervates, DCs at 4 °C, ELISA
Procedure: To test internalization mechanisms, we utilized in vitro antigen presentation assays (Fig. 4A). Here, bone marrow-derived dendritic cells (BMDCs) are treated with coacervates loaded with the model antigen ovalbumin (OVA). […] Secretion of IL-2 in response to peptide-MHC recognition is an indirect measure of coacervate uptake and can be quantified using ELISA (enzyme-linked immunosorbent assay) (Fig. 4A). […] We next used pharmacological inhibitors of endocytic mechanisms to explore mechanisms of cell entry (Fig. 4E). BMDCs were treated with inhibitors of clathrin-mediated endocytosis (chlorpromazine, CPZ),[58] dynamin-dependent endocytosis (dynasore, Dyn),[59] macropinocytosis (wortmannin, Wort),[60] cholesterol (methyl β-CD),[61] and IPA3 the regulatory domain of PAK1 (IPA-3)[62] for one h prior to antigen presentation assays.
Cellular uptake and antigen presentation assays
Uptake of coacervates by BMDCs was measured using in vitro antigen presentation assays.
BMDCs were plated in 96-well round-bottom plates (1×10^5 cells/well) and maintained at 4°C or
treated with 10 mM deoxy glucose and 10 mM sodium azide in PBS (ATP depletion) for 1 h prior
to addition of OVA-loaded coacervates. Final OVA concentration was 1 g/mL for time-
dependent measurements and 10 g/mL for comparison between enantiomers. Cells maintained at
37°C and complete RPMI media served as controls. Soluble OVA and PBS treated cells were used as controls for antigen delivery. Following treatment (2 h, 4 h, 24 h, 48 h, or 72 h), BMDCs were
washed to remove extracellular coacervates and DOBW hybridoma cells (1:5, DC: DOBW) were
overlaid for 16 h. The cells were then centrifuged at 300 × g for 5 min, and the supernatant was
collected for IL-2 quantitation by ELISA according to the manufacturer protocol (Biotechne,
#DY402). The amount of IL-2 produced under each condition was measured.
Inhibition of coacervate uptake was measured by adding the inhibitors 1 h
prior to coacervate treatment for 24 h followed by hybridoma overlay and IL-2 measurements.

Substance	interaction with the cell membrane of hiPSC-CMs (hiPSC-CMs)	cellular uptake / localization in hiPSC-CMs (hiPSC-CMs)	droplet fusion (coalescence) [1]	lysosomal processing of DQ-OVA delivered by coacervates (DCs)	IL-2 levels at 4 °C compared to 37 °C controls [2]	IL-2 production compared to (GHGLY)4 at the same antigen dose ([2]; coacervates loaded with 1 μM OVA, pre-treatment 2-72 h)
(GHGLY)4 [GL 20]	interacted with and traversed the cell membrane	confirmed their localization within the cells	multiple rapid fusion events	Green fluorescent puncta were detected	significantly lower IL-2 levels	–
(GHGVY)4 [GV 20]	this behavior was not observed	confirmed their localization within the cells	did not exhibit fusion behavior	Green fluorescent puncta were detected	significantly lower IL-2 levels	significantly higher
